Reference: US20060154243A1 (priority 2003, published 2006)

Columns and labels:
serum 37 (individual 37) = type: binding, human
serum 62 (individual 62) = type: binding, human
serum SARS-yellow = type: binding, human
serum 6 (individual 6) = type: binding, human
serum SARS-green = type: binding, human
[1] = test system: control serum LUMC (pooled serum of ten healthy hospital workers); type: binding, human
[2] = test system: rabbit serum obtained by immunizing with SARS-CoV strain Frankfurt 1; type: binding
serum 2 (individual 2) = type: binding, human
[3] = test system: serum 1a (individual 1, early serum); type: binding, human
[4] = test system: serum 1b (individual 1, late serum); type: binding, human
serum London = type: binding, human
[5] = test system: control serum Blood-bank (commercial negative donor pooled serum); type: binding, human

Sequence	Binding of serum 37 to linear peptides of Orf14 of SARS-CoV TOR2 (serum 37 (individual 37))	Binding of serum 62 to linear peptides of Orf14 of SARS-CoV TOR2 (serum 62 (individual 62))	Binding of serum SARS-yellow to linear peptides of Orf14 of SARS-CoV TOR2 (serum SARS-yellow)	Binding of serum 6 to linear peptides of Orf14 of SARS-CoV TOR2 (serum 6 (individual 6))	Binding of serum SARS-green to linear peptides of Orf14 of SARS-CoV TOR2 (serum SARS-green)	Control serum LUMC linear peptides [1]	Control serum LUMC looped peptides [1]	Recognition by the rabbit serum [2]	Binding of serum 2 to linear peptides of Orf14 of SARS-CoV TOR2 (serum 2 (individual 2))	Binding of serum 1a to linear peptides of Orf14 of SARS-CoV TOR2 [3]	Binding of serum 1b to linear peptides of Orf14 of SARS-CoV TOR2 [4]	Binding of serum London to linear peptides of Orf14 of SARS-CoV TOR2 (serum London)	Control Serum Blood-Bank Looped peptides [5]	Control serum Blood-bank linear peptides [5]
AAVKPLLAPHHVVAV	0.9	0.9	0.8	0.7	0.6	1.0	0.7	recognized by the rabbit serum	1.0	0.8	0.6	0.8	0.6	1.0
VKPLLAPHHVVAVIQ	0.7	0.5	0.4	0.5	0.3	0.6	0.6	recognized by the rabbit serum	0.6	0.6	0.5	0.6	0.7	0.7
EAAVKPLLAPHHVVA	0.7	0.6	0.6	0.5	0.6	0.8	0.7	recognized by the rabbit serum	0.7	0.6	0.5	0.8	0.8	0.6
AEAAVKPLLAPHHVV	0.8	0.8	0.8	0.6	0.8	1.0	0.6		1.3	0.7	0.5	0.8	0.6	0.8
AVIQEIQLLAAVGEI	1.7	2.1	2.3	2.0	2.5	1.4	0.5		1.7	2.1	2.4	1.7	0.5	1.8
AVKPLLAPHHVVAVI	0.7	0.5	0.6	0.5	0.3	0.6	0.7	recognized by the rabbit serum	0.5	0.6	0.4	0.5	0.7	0.7
MLPPCYNFLKEQHCQ	0.5	0.3	0.2	0.5	0.2	0.5	0.6		0.3	0.4	0.4	0.4	0.7	0.4
EILLLEWLAEVVKLP	0.6	0.5	0.4	0.7	0.4	0.6	0.6		0.5	0.5	0.5	0.7	0.7	0.7
LLAPHHVVAVIQEIQ	0.6	0.5	0.5	0.5	0.3	0.6	0.8		0.5	0.5	0.5	0.5	0.8	0.4
HVVAVIQEIQLLAAV	0.6	0.3	0.4	0.4	0.1	0.5	0.4		0.5	0.5	0.4	0.4	0.6	0.4
